{"source": "ChEMBL document CHEMBL5120965", "about": "“Moroidin, a Cyclopeptide from the Seeds of Celosia cristata That Induces Apoptosis in A549 Human Lung Cancer Cells” (J Nat Prod, 2022)", "key": {"A549 [1]": {"test_system": "A549", "test": "Induction of microtubule depolymerization in human A549 cells assessed as occurence of cell shrinkage at 2.5 uM measured after 48 hrs by DAPI staining based immunofluorescence assay", "format": "functional"}, "A549 [2]": {"test_system": "A549", "test": "Induction of microtubule depolymerization in human A549 cells assessed as occurence of rounded cells at 2.5 uM measured after 48 hrs by DAPI staining based immunofluorescence assay", "format": "functional, cell-based"}, "A549 [3]": {"test_system": "A549", "test": "Induction of microtubule depolymerization in human A549 cells assessed as reduction in tubulin protein level at 2.5 uM by Western blot analysis", "format": "functional", "set-up": "scale not given: the % may be the effect or the level left"}, "A549 [4]": {"test_system": "A549", "test": "Antiproliferative activity against human A549 cells assessed as reduction in cell viability at 0.01 to 100 uM measured after 24 to 72 hrs by MTT assay", "format": "functional, cell-based", "conditions": "dose 0.01-100 µM, time 24-72 hrs"}, "A549 [5]": {"test_system": "A549", "test": "Cytotoxicity against human A549 cells assessed as reduction in cell viability incubated for 72 hrs by MTT assay", "format": "functional, cell-based", "conditions": "A549, 72 h"}, "NCI-H1299": {"test_system": "NCI-H1299", "test": "Cytotoxicity against human H1299 cells assessed as reduction in cell viability incubated for 72 hrs by MTT assay", "format": "functional, cell-based", "conditions": "NCI-H1299, 72 h"}, "U-87 MG": {"test_system": "U-87 MG", "test": "Cytotoxicity against human U87 cells assessed as reduction in cell viability incubated for 72 hrs by MTT assay", "format": "functional, cell-based, U-87MG ATCC"}, "U-251": {"test_system": "U-251", "test": "Cytotoxicity against human U-251 cells assessed as reduction in cell viability incubated for 72 hrs by MTT assay", "format": "functional, cell-based", "conditions": "U-251, 72 h"}, "HCT-116": {"test_system": "HCT-116", "test": "Cytotoxicity against human HCT-116 cells assessed as reduction in cell viability incubated for 72 hrs by MTT assay", "format": "functional, cell-based", "conditions": "HCT-116, 72 h"}, "MCF7 [6]": {"test_system": "MCF7", "test": "Cytotoxicity against human MCF7 cells assessed as reduction in cell viability incubated for 72 hrs by MTT assay", "format": "functional, cell-based", "conditions": "MCF7, 72 h"}, "A549 [7]": {"test_system": "A549", "test": "Inhibition of colony formation in human A549 cells up to 20 uM measured after 10 days by crystal violet staining based assay", "format": "functional, cell-based", "conditions": "dose 1.25-20 µM, time 10.0 day, DDE = dose-dependent effect"}, "MCF7 [8]": {"test_system": "MCF7", "test": "Inhibition of colony formation in human MCF7 cells measured after 10 days by crystal violet staining based assay", "format": "functional, cell-based", "conditions": "dose 1.25-20 µM, time 10.0 day, DDE = dose-dependent effect"}, "A549 [9]": {"test_system": "A549", "test": "Induction of microtubule depolymerization in human A549 cells assessed as reduction in microtubule network measured after 48 hrs by DAPI staining based immunofluorescence assay", "format": "functional, cell-based", "conditions": "dose 2.5-5 µM"}, "A549 [10]": {"test_system": "A549", "test": "Induction of microtubule depolymerization in human A549 cells assessed as fragmentation of microtubule network measured after 48 hrs by DAPI staining based immunofluorescence assay", "format": "functional, cell-based", "conditions": "dose 2.5-5 µM"}, "A549 [11]": {"test_system": "A549", "test": "Induction of cell cycle arrest in human A549 cells assessed as increase in accumulation of cells at G2/M phase at 5 to 20 uM measured after 48 hrs by […]propidium iodide staining based flow cytometry analysis (reference value: 8.33%)", "format": "functional", "conditions": "dose 5-20 µM"}, "A549 [12]": {"test_system": "A549", "test": "Induction of cell cycle arrest in human A549 cells assessed as decrease in ratio of cells at G1 phase measured after 48 hrs by […]propidium iodide staining based flow cytometry analysis", "format": "functional", "conditions": "dose 5-20 µM, DDE = dose-dependent effect"}, "A549 [13]": {"test_system": "A549", "test": "Induction of cell apoptosis in human A549 cells assessed as increase in apoptosis rate at 5 uM measured after 48 hrs by annexinV-FITC/propidium iodide staining based flow cytometry analysis (reference value: 3.27%)", "format": "functional"}, "A549 [14]": {"test_system": "A549", "test": "Induction of cell apoptosis in human A549 cells assessed as increase in apoptosis rate at 10 uM measured after 48 hrs by annexinV-FITC/propidium iodide staining based flow cytometry analysis (reference value: 3.27%)", "format": "functional"}, "A549 [15]": {"test_system": "A549", "test": "Induction of cell apoptosis in human A549 cells assessed as increase in apoptosis rate at 20 uM measured after 48 hrs by annexinV-FITC/propidium iodide staining based flow cytometry analysis (reference value: 3.27%)", "format": "functional"}, "A549 [16]": {"test_system": "A549", "test": "Induction of cell apoptosis in human A549 cells assessed as increase in pro-caspase 3 level measured after 48 hrs by Western blot analysis", "format": "functional, cell-based", "conditions": "dose 5-20 µM, DDE = dose-dependent effect"}, "A549 [17]": {"test_system": "A549", "test": "Induction of cell apoptosis in human A549 cells assessed as increase in pro-caspase 9 level measured after 48 hrs by Western blot analysis", "format": "functional, cell-based", "conditions": "dose 5-20 µM, DDE = dose-dependent effect"}, "A549 [18]": {"test_system": "A549", "test": "Induction of cell apoptosis in human A549 cells assessed as increase in PARP level measured after 48 hrs by Western blot analysis", "format": "functional, cell-based", "conditions": "dose 5-20 µM, DDE = dose-dependent effect"}, "A549 [19]": {"test_system": "A549", "test": "Induction of cell apoptosis in human A549 cells assessed as increase in cleaved-caspase 3 level measured after 48 hrs by Western blot analysis", "format": "functional, cell-based", "conditions": "dose 5-20 µM, DDE = dose-dependent effect"}, "A549 [20]": {"test_system": "A549", "test": "Induction of cell apoptosis in human A549 cells assessed as increase in cleaved-caspase 9 level measured after 48 hrs by Western blot analysis", "format": "functional, cell-based", "conditions": "dose 5-20 µM, DDE = dose-dependent effect"}, "A549 [21]": {"test_system": "A549", "test": "Induction of cell apoptosis in human A549 cells assessed as increase in cleaved PARP level measured after 48 hrs by Western blot analysis", "format": "functional, cell-based", "conditions": "dose 5-20 µM, DDE = dose-dependent effect"}, "A549 [22]": {"test_system": "A549", "test": "Induction of cell apoptosis in human A549 cells assessed as increase in Bax expression level at 5 to 20 uM measured after 48 hrs by Western blot analysis", "format": "functional, cell-based", "conditions": "dose 5-20 µM"}, "A549 [23]": {"test_system": "A549", "test": "Induction of cell apoptosis in human A549 cells assessed as decrease in Bcl-2 expression level at 5 to 20 uM measured after 48 hrs by Western blot analysis", "format": "functional, cell-based", "conditions": "dose 5-20 µM"}, "A549 [24]": {"test_system": "A549", "test": "Induction of cell apoptosis in human A549 cells assessed as increase in Bax/Bcl-2 ratio at 5 to 20 uM measured after 48 hrs by Western blot analysis", "format": "functional, cell-based", "conditions": "dose 5-20 µM"}, "A549 [25]": {"test_system": "A549", "test": "Induction of cell apoptosis in human A549 cells assessed as reduction in AKT phosphorylation at 5 to 20 uM measured after 48 hrs by Western blot analysis", "format": "functional, cell-based", "conditions": "dose 5-20 µM"}, "A549 [26]": {"test_system": "A549", "test": "Induction of cell apoptosis in human A549 cells assessed as reduction in AKT expression at 5 to 20 uM measured after 48 hrs by Western blot analysis", "format": "functional, cell-based", "conditions": "dose 5-20 µM"}, "A549 [27]": {"test_system": "A549", "test": "Antimigratory activity against human A549 cells assessed as migration of cells into scratch area at 0.5 uM measured after 48 hrs by scratch assay based microscopic analysis (reference value: 85.15%)", "format": "functional"}, "A549 [28]": {"test_system": "A549", "test": "Antimigratory activity against human A549 cells assessed as migration of cells into scratch area at 1 uM measured after 48 hrs by scratch assay based microscopic analysis (reference value: 85.15%)", "format": "functional"}, "A549 [29]": {"test_system": "A549", "test": "Antimigratory activity against human A549 cells assessed as migration of cells into scratch area at 2 uM measured after 48 hrs by scratch assay based microscopic analysis (reference value: 85.15%)", "format": "functional"}, "A549 [30]": {"test_system": "A549", "test": "Antimigratory activity against human A549 cells assessed as reduction in number of migrated cells measured after 48 hrs by transwell assay based microscopic analysis", "format": "functional, cell-based", "conditions": "dose 0.5-2 µM, DDE = dose-dependent effect"}, "A549 [31]": {"test_system": "A549", "test": "Antiinvasive activity against human A549 cells assessed as reduction in number of invasion cells measured after 48 hrs by transwell assay based microscopic analysis", "format": "functional, cell-based", "conditions": "dose 0.5-2 µM, DDE = dose-dependent effect"}}, "note": "The source made the active and inactive calls. The calls are words filed in the database; no cut-off is given here.", "data": [{"smiles": "COc1cc2c(c(OC)c1OC)-c1ccc(OC)c(=O)cc1[C@@H](NC(C)=O)CC2", "note": "[COLCHICINE]", "values": [{"measurement": "Activity", "setting": "A549 [1]", "result": "Active"}, {"measurement": "Activity", "setting": "A549 [2]", "result": "Active"}, {"measurement": "Activity", "setting": "A549 [3]", "result": 63, "unit": "%"}, {"measurement": "Activity", "setting": "A549 [4]", "result": "Active"}]}, {"smiles": "CC(C)C[C@@H]1NC(=O)[C@@H](NC(=O)[C@@H]2CCC(=O)N2)[C@H](C(C)C)c2ccc3c4c([nH]c3c2)-n2cnc(c2)C[C@@H](C(=O)O)NC(=O)CNC(=O)[C@H](CCCNC(=N)N)NC(=O)[C@H](C4)NC(=O)[C@H](C(C)C)NC1=O", "values": [{"measurement": "IC50", "setting": "A549 [5]", "result": 3.2, "unit": "µM"}, {"measurement": "IC50", "setting": "NCI-H1299", "result": 8.3, "unit": "µM"}, {"measurement": "IC50", "setting": "U-87 MG", "result": 9.6, "unit": "µM"}, {"measurement": "IC50", "setting": "U-251", "result": 5.2, "unit": "µM"}, {"measurement": "IC50", "setting": "HCT-116", "result": 9.9, "unit": "µM"}, {"measurement": "IC50", "setting": "MCF7 [6]", "result": "> 10", "unit": "µM"}, {"measurement": "inhibition", "setting": "A549 [7]", "result": "Dde"}, {"measurement": "inhibition", "setting": "MCF7 [8]", "result": "Dde"}, {"measurement": "Activity", "setting": "A549 [9]", "result": "Active"}, {"measurement": "Activity", "setting": "A549 [10]", "result": "Active"}, {"measurement": "Activity", "setting": "A549 [3]", "result": 20, "unit": "%"}, {"measurement": "Activity", "setting": "A549 [11]", "result": 36.35, "unit": "%"}, {"measurement": "Activity", "setting": "A549 [12]", "result": "Dde"}, {"measurement": "Activity", "setting": "A549 [13]", "result": 6.14, "unit": "%"}, {"measurement": "Activity", "setting": "A549 [14]", "result": 11.4, "unit": "%"}, {"measurement": "Activity", "setting": "A549 [15]", "result": 20.62, "unit": "%"}, {"measurement": "Activity", "setting": "A549 [16]", "result": "Dde"}, {"measurement": "Activity", "setting": "A549 [17]", "result": "Dde"}, {"measurement": "Activity", "setting": "A549 [18]", "result": "Dde"}, {"measurement": "Activity", "setting": "A549 [19]", "result": "Dde"}, {"measurement": "Activity", "setting": "A549 [20]", "result": "Dde"}, {"measurement": "Activity", "setting": "A549 [21]", "result": "Dde"}, {"measurement": "Activity", "setting": "A549 [22]", "result": "Active"}, {"measurement": "Activity", "setting": "A549 [23]", "result": "Active"}, {"measurement": "Activity", "setting": "A549 [24]", "result": "Active"}, {"measurement": "Activity", "setting": "A549 [25]", "result": "Active"}, {"measurement": "Activity", "setting": "A549 [26]", "result": "Active"}, {"measurement": "Activity", "setting": "A549 [27]", "result": 60.84, "unit": "%"}, {"measurement": "Activity", "setting": "A549 [28]", "result": 40.22, "unit": "%"}, {"measurement": "Activity", "setting": "A549 [29]", "result": 21.92, "unit": "%"}, {"measurement": "Activity", "setting": "A549 [30]", "result": "Dde"}, {"measurement": "Activity", "setting": "A549 [31]", "result": "Dde"}]}]}
